Reference: US20170008888A1 (KYORIN PHARMACEUTICAL CO., LTD., priority 2014, published 2017)

Experiments:
human PBMCs = test: Human PBMC TNF-α response to endotoxin (ELISA); format: cell-based; conditions: 0.1 μg/ml LPS 16 h, read-out: EC50 for the inhibition of the human PBMC TNF-α response to endotoxin, ave. ± S.D.
Procedure: Human PBMCs (Astarte Biologics, Redmond, Wash.) were seeded at 2e6 cells/ml in RPMI 1640 containing 10% (v/v) charcoal-dextran treated, heat inactivated FBS (Omega Scientific, Tarzana, Calif.), 0.05 mM 2-Mercaptoethanol (Sigma-Aldrich, St. Louis, Mo.), and 1×Pen/Strep Amphotericin B (Lonza, Allendale, N.J.). Cells were pre-treated with test compounds (10 μM down by ⅕ in a 4-point serial dilution series) for 1 h at 37° C. in a humidified atmosphere at 5% CO2. Cells were then stimulated with 0.1 μg/ml lipopolysaccharide (LPS) from E. coli 0111:B4 (EMD Millipore, Billerica, Mass.) for 16 h at 37° C. in a humidified atmosphere at 5% CO2. Supernatant was collected and a 25-fold dilution was analyzed for TNF-α concentration using an ELISA kit from Life Technologies (Grand Island, N.Y.) according to the manufacturer's instructions. Absorbance at 450 nm was read using the Synergy 2 multi-detection microplate reader (BioTek Instruments, Winooski, Vt.).

ERK5 = target: T1, ERK5 (Homo sapiens, UniProt Q13164); test: Probe-based (AX9989 acyl phosphate ATP probe) kinase profiling in Jurkat lysate: ERK5; format: binding; conditions: for IC50: calculated from percent inhibition of AX9989 labeling and the screening concentration, Jurkat lysate; for inhibition at 1 µM: screening concentration 1.0 μM, read-out: Kinase inhibition % at indicated screening concentration: ERK5
T1 construct: screened for activity against several kinases in Jurkat cells; endogenous in cells; host or cells: Jurkat cell lysate
Procedure: (§1) In this example, potency of the compounds as ERK5 inhibitors was assessed, and the compounds were screened for activity against several kinases in Jurkat cells.
(§2) Jurkat cell pellets were resuspended in four volumes of lysis buffer (50 mM HEPES pH 7.5, 150 mM NaCl, 0.1% Triton-X-100, 1% v/v phosphatase, inhibitor cocktail II [EMD/Calbiochem, #524625]), sonicated using a tip, sonicator, and Dounce homogenized. Lysate was cleared by centrifugation, at 16,000 g for 15 min., was gel filtered (BioRad 10DG) and MnCl2 was then added to a final concentration of 20 mM before treatment with the test compound and probe labeling. […] All compound treatments were performed at room temperature.
(§3) Acyl phosphate ATP probe (AX9989) labeling reactions were performed at room temperature with a final probe concentration of 5 μM after a 15 min pre-incubation of lysate with a test compound. All reactions were performed in duplicate, using 445 μl/sample at 5 mg/ml. Probe-labeled lysates were denatured and reduced (6 M urea, 10 mM DTT, 65° C., 15 min), alkylated (40 mM iodoacetamide, 37° C., 30 min, and gel filtered (Sephadex G25) into 10 mM ammonium bicarbonate, 2 M urea, 5 mM methionine. The desalted protein mixture was digested with trypsin (0.015 mg/ml) for 1 hr at 37° C., and desthiobiotinylated peptides were captured using a […] high-capacity streptavidin resin (Thermo Scientific). Captured peptides were then washed extensively using 150 μl/wash with three different wash buffers: (A) 3 times with 1% triton, 0.5% tergitol, 1 mM EDTA in PBS; (B) 18 times with PBS; and (C) 8 times with HPLC grade water. Peptides were eluted from the streptavidin beads using two 35-μL washes of a 50% CH3CN/water mixture containing 0.1% TFA at room temperature.
(§4) Kinase active site peptides were identified and quantified using LC/MS. Percent inhibition was calculated as the normalized decrease in the ESI-MS fragment intensities of probe-labeled peptides in samples incubated with the test compound compared to those without.
ERK5 IC50 values were calculated from the percent inhibition and the screening concentration.

AurA = target: T2, AurA (Homo sapiens, UniProt O14965); test: Probe-based (AX9989) kinase profiling in Jurkat lysate: AurA; format: binding; conditions: screening concentration 1.0 μM; read-out: Kinase inhibition % at indicated screening concentration: AurA
T2 construct: screened for activity against several kinases in Jurkat cells; endogenous in cells; host or cells: Jurkat cell lysate
T2 sequence (O14965 1-403): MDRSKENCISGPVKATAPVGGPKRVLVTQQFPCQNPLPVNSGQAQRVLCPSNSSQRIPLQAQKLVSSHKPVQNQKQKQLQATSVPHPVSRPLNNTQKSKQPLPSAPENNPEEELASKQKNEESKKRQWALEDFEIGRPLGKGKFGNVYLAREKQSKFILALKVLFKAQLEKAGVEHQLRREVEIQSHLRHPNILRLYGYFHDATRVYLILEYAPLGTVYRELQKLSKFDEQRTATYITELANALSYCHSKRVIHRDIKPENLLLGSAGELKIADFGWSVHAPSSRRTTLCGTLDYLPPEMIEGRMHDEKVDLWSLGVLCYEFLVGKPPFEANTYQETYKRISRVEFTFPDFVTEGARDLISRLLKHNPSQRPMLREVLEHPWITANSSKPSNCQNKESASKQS
Procedure: as §1, §2, §3, §4

JAK1 = target: T3, JAK1 (Homo sapiens, UniProt P23458); test: Probe-based (AX9989) kinase profiling in Jurkat lysate: JAK1; format: binding; conditions: screening concentration 1.0 μM; read-out: Kinase inhibition % at indicated screening concentration: JAK1
T3 construct: screened for activity against several kinases in Jurkat cells; endogenous in cells; host or cells: Jurkat cell lysate
Procedure: as §1, §2, §3, §4

TAO2 = target: T4, TAO2 (Homo sapiens, UniProt Q9UL54); test: Probe-based (AX9989) kinase profiling in Jurkat lysate: TAO2; format: binding; conditions: screening concentration 1.0 μM; read-out: Kinase inhibition % at indicated screening concentration: TAO2
T4 construct: screened for activity against several kinases in Jurkat cells; endogenous in cells; host or cells: Jurkat cell lysate
T4 sequence (Q9UL54 1-1235): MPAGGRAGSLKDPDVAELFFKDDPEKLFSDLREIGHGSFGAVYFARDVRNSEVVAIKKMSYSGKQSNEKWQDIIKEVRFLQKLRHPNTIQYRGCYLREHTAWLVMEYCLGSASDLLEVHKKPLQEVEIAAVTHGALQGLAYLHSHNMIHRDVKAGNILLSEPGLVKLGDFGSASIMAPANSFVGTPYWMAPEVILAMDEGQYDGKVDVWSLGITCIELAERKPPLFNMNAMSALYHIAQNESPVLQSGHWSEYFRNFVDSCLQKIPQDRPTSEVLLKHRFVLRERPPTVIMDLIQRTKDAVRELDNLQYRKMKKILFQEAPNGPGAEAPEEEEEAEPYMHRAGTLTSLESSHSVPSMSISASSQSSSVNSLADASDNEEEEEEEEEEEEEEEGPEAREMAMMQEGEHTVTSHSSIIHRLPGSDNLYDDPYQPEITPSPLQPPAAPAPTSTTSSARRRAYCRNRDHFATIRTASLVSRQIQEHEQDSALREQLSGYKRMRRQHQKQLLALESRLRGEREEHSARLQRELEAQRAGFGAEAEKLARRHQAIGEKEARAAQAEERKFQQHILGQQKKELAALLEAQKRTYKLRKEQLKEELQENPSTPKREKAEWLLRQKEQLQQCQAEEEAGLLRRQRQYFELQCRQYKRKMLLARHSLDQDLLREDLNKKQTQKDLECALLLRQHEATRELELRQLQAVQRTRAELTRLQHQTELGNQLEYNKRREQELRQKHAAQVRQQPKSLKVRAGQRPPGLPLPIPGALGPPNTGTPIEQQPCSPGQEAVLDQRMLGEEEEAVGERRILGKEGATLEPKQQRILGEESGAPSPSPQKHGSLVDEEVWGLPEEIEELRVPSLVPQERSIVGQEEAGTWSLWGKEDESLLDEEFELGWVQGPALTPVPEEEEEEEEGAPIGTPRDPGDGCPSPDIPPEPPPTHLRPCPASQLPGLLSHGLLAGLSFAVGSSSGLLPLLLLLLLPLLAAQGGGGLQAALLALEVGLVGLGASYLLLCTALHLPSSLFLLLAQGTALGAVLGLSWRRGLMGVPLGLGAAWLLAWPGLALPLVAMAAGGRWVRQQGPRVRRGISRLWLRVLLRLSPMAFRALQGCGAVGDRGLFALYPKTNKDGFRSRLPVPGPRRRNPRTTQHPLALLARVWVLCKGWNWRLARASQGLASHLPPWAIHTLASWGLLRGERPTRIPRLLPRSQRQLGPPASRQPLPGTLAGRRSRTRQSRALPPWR
Procedure: as §1, §2, §3, §4

AurB or AurC = test: Probe-based (AX9989) kinase profiling in Jurkat lysate: AurB or AurC; format: binding; conditions: screening concentration 1.0 μM
Procedure: as §1, §2, §3, §4

ABL or ARG = test: Probe-based (AX9989) kinase profiling in Jurkat lysate: ABL or ARG; format: binding; conditions: screening concentration 1.0 μM
Procedure: as §1, §2, §3, §4

AMPKa1 or AMPKa2 = test: Probe-based (AX9989) kinase profiling in Jurkat lysate: AMPKa1 or AMPKa2; format: binding; conditions: screening concentration 1.0 μM
Procedure: as §1, §2, §3, §4

ACK = target: T5, ACK (Homo sapiens, UniProt Q07912); test: Probe-based (AX9989) kinase profiling in Jurkat lysate: ACK; format: binding; conditions: screening concentration 1.0 μM; read-out: Kinase inhibition % at indicated screening concentration: ACK
T5 construct: screened for activity against several kinases in Jurkat cells; endogenous in cells; host or cells: Jurkat cell lysate
Procedure: as §1, §2, §3, §4

T1 sequence (Q13164 whole entry): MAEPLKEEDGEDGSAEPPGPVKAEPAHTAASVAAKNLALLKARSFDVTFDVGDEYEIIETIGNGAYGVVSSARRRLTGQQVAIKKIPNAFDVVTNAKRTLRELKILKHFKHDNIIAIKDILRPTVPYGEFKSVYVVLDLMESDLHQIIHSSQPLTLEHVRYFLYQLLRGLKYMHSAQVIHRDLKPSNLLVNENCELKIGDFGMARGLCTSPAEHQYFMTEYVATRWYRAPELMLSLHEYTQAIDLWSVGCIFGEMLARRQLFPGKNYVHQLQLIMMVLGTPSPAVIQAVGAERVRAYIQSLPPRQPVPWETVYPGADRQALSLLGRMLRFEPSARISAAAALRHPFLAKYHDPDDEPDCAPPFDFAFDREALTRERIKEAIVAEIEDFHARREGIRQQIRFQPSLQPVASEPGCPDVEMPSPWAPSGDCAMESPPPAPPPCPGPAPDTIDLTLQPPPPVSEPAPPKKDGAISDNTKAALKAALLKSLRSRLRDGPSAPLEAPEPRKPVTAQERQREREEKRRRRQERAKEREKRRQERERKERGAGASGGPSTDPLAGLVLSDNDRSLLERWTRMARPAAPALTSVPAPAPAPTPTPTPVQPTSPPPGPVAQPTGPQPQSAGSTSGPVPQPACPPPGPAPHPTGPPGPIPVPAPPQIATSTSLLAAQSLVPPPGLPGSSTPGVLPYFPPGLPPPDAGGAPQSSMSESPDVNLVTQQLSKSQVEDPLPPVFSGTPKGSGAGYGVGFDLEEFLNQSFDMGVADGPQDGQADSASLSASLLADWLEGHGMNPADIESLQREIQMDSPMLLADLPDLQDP
T5 sequence (Q07912 whole entry): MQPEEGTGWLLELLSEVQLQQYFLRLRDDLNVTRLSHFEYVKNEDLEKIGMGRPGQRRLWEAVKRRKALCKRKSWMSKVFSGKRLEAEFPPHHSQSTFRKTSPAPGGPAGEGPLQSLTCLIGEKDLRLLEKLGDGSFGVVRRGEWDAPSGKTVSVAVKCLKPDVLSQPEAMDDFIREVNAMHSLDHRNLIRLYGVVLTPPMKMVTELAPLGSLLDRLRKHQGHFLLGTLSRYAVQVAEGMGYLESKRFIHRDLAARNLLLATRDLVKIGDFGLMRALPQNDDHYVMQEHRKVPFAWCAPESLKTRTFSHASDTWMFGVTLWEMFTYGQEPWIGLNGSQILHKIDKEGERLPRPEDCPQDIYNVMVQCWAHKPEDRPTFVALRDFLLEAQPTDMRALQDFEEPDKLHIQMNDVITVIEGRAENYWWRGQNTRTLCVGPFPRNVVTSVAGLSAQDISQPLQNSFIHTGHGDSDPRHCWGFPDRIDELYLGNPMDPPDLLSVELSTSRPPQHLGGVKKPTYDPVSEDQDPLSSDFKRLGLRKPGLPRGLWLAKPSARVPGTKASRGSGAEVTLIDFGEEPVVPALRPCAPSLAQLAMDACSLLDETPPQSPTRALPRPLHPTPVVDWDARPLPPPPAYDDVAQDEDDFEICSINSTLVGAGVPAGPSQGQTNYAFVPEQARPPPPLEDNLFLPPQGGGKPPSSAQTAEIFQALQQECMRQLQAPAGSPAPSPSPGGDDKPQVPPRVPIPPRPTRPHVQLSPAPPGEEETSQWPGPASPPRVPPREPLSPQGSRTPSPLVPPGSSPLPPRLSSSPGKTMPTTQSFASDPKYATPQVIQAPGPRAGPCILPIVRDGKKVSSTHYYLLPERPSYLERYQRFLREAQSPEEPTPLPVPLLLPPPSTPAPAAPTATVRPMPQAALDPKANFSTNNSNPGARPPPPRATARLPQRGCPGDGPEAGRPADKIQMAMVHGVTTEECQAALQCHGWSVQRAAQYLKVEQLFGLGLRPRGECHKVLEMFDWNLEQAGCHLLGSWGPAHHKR
T3 sequence (P23458 whole entry): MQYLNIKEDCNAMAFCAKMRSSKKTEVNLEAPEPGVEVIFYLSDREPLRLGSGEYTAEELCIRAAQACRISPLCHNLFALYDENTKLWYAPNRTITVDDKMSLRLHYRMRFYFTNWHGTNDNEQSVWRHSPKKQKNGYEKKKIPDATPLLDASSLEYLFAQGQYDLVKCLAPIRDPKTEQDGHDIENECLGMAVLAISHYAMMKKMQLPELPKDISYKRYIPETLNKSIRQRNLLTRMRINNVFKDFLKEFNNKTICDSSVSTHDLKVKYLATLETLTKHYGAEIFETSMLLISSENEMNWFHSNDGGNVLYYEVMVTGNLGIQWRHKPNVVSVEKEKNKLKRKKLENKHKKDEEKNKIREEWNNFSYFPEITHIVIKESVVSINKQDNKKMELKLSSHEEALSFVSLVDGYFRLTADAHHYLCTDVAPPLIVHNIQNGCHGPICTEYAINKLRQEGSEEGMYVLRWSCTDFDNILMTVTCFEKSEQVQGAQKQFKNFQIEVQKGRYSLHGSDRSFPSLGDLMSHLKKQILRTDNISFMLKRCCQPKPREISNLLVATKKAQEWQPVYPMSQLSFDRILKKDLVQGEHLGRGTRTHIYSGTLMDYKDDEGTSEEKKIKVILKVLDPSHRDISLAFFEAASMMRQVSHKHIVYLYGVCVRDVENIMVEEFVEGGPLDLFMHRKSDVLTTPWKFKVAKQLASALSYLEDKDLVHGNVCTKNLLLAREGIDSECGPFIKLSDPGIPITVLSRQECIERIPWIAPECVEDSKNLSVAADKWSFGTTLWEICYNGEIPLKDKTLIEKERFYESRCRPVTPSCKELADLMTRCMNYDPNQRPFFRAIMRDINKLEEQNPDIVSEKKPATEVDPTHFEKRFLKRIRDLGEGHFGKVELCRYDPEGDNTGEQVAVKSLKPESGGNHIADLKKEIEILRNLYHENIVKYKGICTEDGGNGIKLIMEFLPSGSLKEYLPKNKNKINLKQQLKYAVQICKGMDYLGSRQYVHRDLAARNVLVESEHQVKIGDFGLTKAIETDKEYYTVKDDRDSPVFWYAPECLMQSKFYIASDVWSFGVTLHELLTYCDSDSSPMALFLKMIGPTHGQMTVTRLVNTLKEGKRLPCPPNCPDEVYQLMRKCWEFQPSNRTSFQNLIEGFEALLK

Row | Structure (SMILES) | IC50 (ERK5) [nM] | inhibition at 1 µM (ERK5) [%] | inhibition at 1 µM (AurA) [%] | inhibition at 1 µM (JAK1) [%] | inhibition at 1 µM (TAO2) [%] | Kinase inhibition % at indicated screening concentration: AurB or AurC (AurB or AurC) | Kinase inhibition % at indicated screening concentration: ABL or ARG (ABL or ARG) | Kinase inhibition % at indicated screening concentration: AMPKa1 or AMPKa2 (AMPKa1 or AMPKa2) | inhibition at 1 µM (ACK) [%] | EC50 (human PBMCs) [nM]
1 | CCOc1ccccc1Nc1cc2c(cn1)N(C)C(=O)c1ccccc1N2C [Compound 13] | > 500 | 50 to 75 | ≤ 35 | ≤ 35 | ≤ 35 | E (E is ≦35%) | E (E is ≦35%) | E (E is ≦35%) | ≤ 35 | –
2 | CCOc1cc(C(=O)O)ccc1Nc1cc2c(cn1)N(C)C(=O)c1ccccc1N2C [Compound 18, 4-(5,11-Dimethyl-10-oxo-10,11-dihydro-5H-benzo[e]pyrido[3,4-b][1,4]diazepin-3-ylamino)-3-ethoxybenzoic acid] | > 500 | 50 to 75 | ≤ 35 | ≤ 35 | ≤ 35 | E (E is ≦35%) | E (E is ≦35%) | E (E is ≦35%) | ≤ 35 | –

The next lines start with results.

Row | IC50 (ERK5) [nM] | inhibition at 1 µM (ERK5) [%] | inhibition at 1 µM (AurA) [%] | inhibition at 1 µM (JAK1) [%] | inhibition at 1 µM (TAO2) [%] | Kinase inhibition % at indicated screening concentration: AurB or AurC (AurB or AurC) | Kinase inhibition % at indicated screening concentration: ABL or ARG (ABL or ARG) | Kinase inhibition % at indicated screening concentration: AMPKa1 or AMPKa2 (AMPKa1 or AMPKa2) | inhibition at 1 µM (ACK) [%] | Structure (SMILES) | EC50 (human PBMCs) [nM]
3 | > 500 | 35 to 50 | – | – | – | – | – | – | – | Cc1ccc(Nc2cc3c(cn2)N(C)C(=O)c2ccccc2N3C)c(C)c1 [Compound 3] | 4230
4 | > 500 | 50 to 75 | ≤ 35 | ≤ 35 | ≤ 35 | E (E is ≦35%) | E (E is ≦35%) | E (E is ≦35%) | ≤ 35 | COc1ccccc1Nc1cc2c(cn1)N(C)C(=O)c1ccccc1N2C [Compound 19] | –
5 | 101 to 500 | 75 to 90 | ≤ 35 | ≤ 35 | ≤ 35 | E (E is ≦35%) | E (E is ≦35%) | E (E is ≦35%) | ≤ 35 | Cc1nn(C)cc1Nc1cc2c(cn1)N(C)C(=O)c1ccccc1N2C [Compound 22] | –
